From ChEMBL document CHEMBL1201862, “PubChem BioAssay data set” (2004) come the findings set out here.

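Method: 48-hour compound exposure of cells in 96-well plates, five concentrations, linear interpolation of endpoints. GI50 is the concentration that inhibits growth by half.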 The source made the active and inactive calls. Cut-off read from the data, not from the text of the source: active = GI50 up to about 1.1 µM and inactive = higher. Some results are limits rather than exact numbers.

Test systems include CAKI-1; UO-31; SF-295; T47D; Malme-3M; MCF7; SK-OV-3; UACC-257; MOLT-4; KM12; HOP-92; HCC 2998; SW-620; 786-0; OVCAR-4; TK-10; NCI/ADR-RES; COLO 205; NCI-H460; HCT-15.
Test in all cases: NCI-60 cell line screen, 48 h

As to `Cc1ccc(OC2CC(n3cnc4ncnc(Cl)c43)OC2Oc2ccc(C)cc2)cc1` (stereo not drawn), the GI50 was 2.11 µM (inactive) with CAKI-1; 11.1 µM (inactive) with UO-31; 21.1 µM (inactive) with SF-295; 12.6 µM (inactive) with T47D; 40.5 µM (inactive) with Malme-3M; 5.96 µM (inactive) in the test on MCF7. Besides, the GI50 was > 100 µM (inactive) with SK-OV-3; 44.8 µM (inactive) in the test on UACC-257; 4.49 µM (inactive) with MOLT-4; 18.4 µM (inactive) with KM12; 8.77 µM (inactive) with HOP-92; 8.04 µM (inactive) in the test on HCC 2998. Also, the GI50 was 48.5 µM (inactive) with SW-620; > 100 µM (inactive) in the test with 786-0; 27.9 µM (inactive) with OVCAR-4; > 100 µM (inactive) in the test with TK-10; 18.8 µM (inactive) with NCI/ADR-RES; 14.8 µM (inactive) in the test on COLO 205. For the same compound, the GI50 was 12.7 µM (inactive) with NCI-H460 and 13.8 µM with HCT-15.
As to `CCCCn1c2c(n(CCCC)c1=S)-c1c(n(CCCC)c(=S)n1CCCC)SSSS2`, the GI50 in the test on CAKI-1 was 0.543 µM (active); in the test on UO-31 it was 0.881 µM (active); in the test with SF-295 it was 13.3 µM (inactive); in the test on T47D, 0.18 µM (active); with Malme-3M it was 0.36 µM (active); with MCF7, 2.68 µM (inactive). The GI50 in the test with SK-OV-3 is 46.1 µM (inactive); in the test on UACC-257, 2.29 µM (inactive); with MOLT-4, 0.454 µM (active); in the test with KM12 it was 8.93 µM (inactive); in the test with HOP-92, 0.301 µM (active); in the test on HCC 2998, 7.59 µM (inactive). Besides, the GI50 in the test on SW-620 is 0.348 µM (active); in the test on 786-0, 1.38 µM (inactive); with OVCAR-4, 0.367 µM (active); with TK-10, 1.22 µM (inactive); in the test with NCI/ADR-RES, 15 µM (inactive); in the test on COLO 205 it was 0.432 µM (active). The values for the GI50 with NCI-H460 and in the test with HCT-15 were 30.8 µM (inactive) and 0.557 µM, respectively.
In the case of `COc1ccc(C=O)cc1Oc1ccc(C[C@H]2c3c(cc(OC)c4c3Oc3cc5c(cc3O4)CCN(C)C5=O)CCN2C)cc1`, the GI50 in the test on CAKI-1 is 18.7 µM (inactive); in the test on UO-31, 7.93 µM (inactive); in the test on SF-295, 7.41 µM (inactive); in the test with T47D, 33.7 µM (inactive); with Malme-3M it was 10.4 µM (inactive); in the test with MCF7, 7.66 µM (inactive). For the same compound, the GI50 with SK-OV-3 was 6.73 µM (inactive); in the test on UACC-257, 8.04 µM (inactive); in the test with MOLT-4, 9.95 µM (inactive); with KM12, 8.91 µM (inactive); in the test with HOP-92 it was 7.14 µM (inactive); in the test on HCC 2998, 8.28 µM (inactive). For the same compound, the GI50 with SW-620 was 12.1 µM (inactive); with 786-0 it was 8.61 µM (inactive); with OVCAR-4, 7.93 µM (inactive); in the test with TK-10 it was 11.2 µM (inactive); in the test on NCI/ADR-RES it was 8.07 µM (inactive); in the test on COLO 205, 20.8 µM (inactive). The GI50 in the test with NCI-H460 is 9.04 µM (inactive); in the test with HCT-15, 10.1 µM.
As for `C(=C\c1cccc(/C=C/c2ccccn2)n1)/c1ccccn1`, the GI50 in the test on CAKI-1 was 50.7 µM (inactive); in the test with UO-31, 26.2 µM (inactive); in the test with SF-295 it was 66.2 µM (inactive); in the test on T47D, 44.5 µM (inactive); with Malme-3M, 17.3 µM (inactive); with MCF7, 26.6 µM (inactive). Moreover, the GI50 was > 100 µM (inactive) with SK-OV-3; > 100 µM (inactive) in the test on UACC-257; 31.5 µM (inactive) with MOLT-4; 46.8 µM (inactive) in the test with KM12; > 100 µM (inactive) in the test with HOP-92; 79.6 µM (inactive) in the test on HCC 2998. The GI50 is 59.4 µM (inactive) with SW-620; > 100 µM (inactive) in the test on 786-0; 60.4 µM (inactive) in the test on OVCAR-4; > 100 µM (inactive) in the test on TK-10; 39.2 µM (inactive) in the test with NCI/ADR-RES; 39.8 µM (inactive) in the test on COLO 205. The GI50 is > 100 µM (inactive) with NCI-H460 and above 100 µM with HCT-15.
Consider `CC(C)(C)c1cc(C(C)(C)C)c(SC2OC(CO)C(O)C(O)C2O)c(O)c1O` (stereo not drawn), for which the GI50 in the test with CAKI-1 is 17.9 µM (inactive); in the test with UO-31, 11.4 µM (inactive); with SF-295 it was 8.39 µM (inactive); with T47D, 17.6 µM (inactive); with Malme-3M, 12.6 µM (inactive); in the test on MCF7, 5.4 µM (inactive). Also, the GI50 with SK-OV-3 is 15.2 µM (inactive); in the test with UACC-257, 20.9 µM (inactive); in the test with MOLT-4, 9.1 µM (inactive); in the test with KM12 it was 6.87 µM (inactive); in the test on HOP-92 it was 11.6 µM (inactive); in the test with HCC 2998, 6.22 µM (inactive). Also, the GI50 in the test on SW-620 is 19.3 µM (inactive); in the test on 786-0 it was 12.7 µM (inactive); with OVCAR-4 it was 12.3 µM (inactive); in the test on TK-10, 12.1 µM (inactive); in the test with NCI/ADR-RES, 10.3 µM (inactive); with COLO 205, 8.45 µM (inactive). The GI50 in the test with NCI-H460 was 3.24 µM (inactive); in the test with HCT-15, 4.54 µM.
For `COC(=O)C(Cc1nc2ccccc2nc1O)C(=O)C(=O)Nc1cc(C(F)(F)F)ccc1Cl` (stereo not drawn), the GI50 is 15.4 µM (inactive) in the test on CAKI-1; 15.5 µM (inactive) with UO-31; 28.3 µM (inactive) with SF-295; 15.1 µM (inactive) in the test with T47D; 14.1 µM (inactive) in the test with Malme-3M; 14.4 µM (inactive) in the test on MCF7. Moreover, the GI50 in the test with SK-OV-3 was 35.3 µM (inactive); in the test with UACC-257, 28.3 µM (inactive); with MOLT-4, 6.17 µM (inactive); in the test with KM12, 14.5 µM (inactive); in the test on HOP-92, 11.6 µM (inactive); in the test with HCC 2998 it was 13.6 µM (inactive). The GI50 was 13.8 µM (inactive) in the test on SW-620; 12.6 µM (inactive) with 786-0; 12.1 µM (inactive) in the test on OVCAR-4; 21.1 µM (inactive) in the test with TK-10; 15.6 µM (inactive) with NCI/ADR-RES; 19 µM (inactive) in the test on NCI-H460. The GI50 in the test on HCT-15 was 13.8 µM.
With `O=C(NC(Cc1c[nH]cn1)C(=O)N1CCCC1)C1CCCC1` (stereo not drawn), the GI50 in the test on CAKI-1 was > 100 µM (inactive); in the test on UO-31, > 100 µM (inactive); in the test on SF-295, > 100 µM (inactive); in the test with T47D it was > 10 µM (inactive); in the test with Malme-3M, > 100 µM (inactive); in the test with MCF7, > 100 µM (inactive). Moreover, the GI50 with SK-OV-3, in the test with MOLT-4, with KM12, in the test with HOP-92, in the test on HCC 2998 and with SW-620 was > 100 µM (inactive) in each case. The GI50 with 786-0, in the test on OVCAR-4, in the test on TK-10, in the test on NCI/ADR-RES, in the test with COLO 205 and with NCI-H460 was > 100 µM (inactive) each time. Besides, in the test with HCT-15, the GI50 is above 100 µM.
